Drawing on ChEMBL document CHEMBL1143046, “Synthesis and bioassay evaluation of 1-(4-substitutedideneaminooxymethyl)-phenyl-3-(2,6-difluorobenzoyl)ureas” (2007), this text covers Activity for 15 compounds.

Holding throughout (type): functional
For experiment [1], the system named is Mythimna separata. As to the kind of experiment: Insecticidal activity against Mythimna separata at 25 mg/kg.
Experiment [2] relates to Mythimna separata. Description: Insecticidal activity against Mythimna separata at 50 mg/kg.
For experiment [3], the system named is Mythimna separata. Description: Insecticidal activity against Mythimna separata at 10 mg/kg.
The next experiment concerns Nephotettix cincticeps. As to the kind of experiment: Insecticidal activity against Nephotettix cincticeps at 500 mg/kg.
Experiment [4] concerns Mythimna separata. As to the kind of experiment: Insecticidal activity against Mythimna separata at 200 mg/kg.
Experiment [5] has as its system Mythimna separata. Description: Insecticidal activity against Mythimna separata at 100 mg/kg.
Experiment [6] deals with Mythimna separata. As to the kind of experiment: Insecticidal activity against Mythimna separata at 500 mg/kg.
Experiment [7] relates to Tetranychus urticae. As to the kind of experiment: Acarcidal activity against Tetranychus urticae eggs at 200 mg/kg.
In experiment [8] the test system is Tetranychus urticae. As to the kind of experiment: Acarcidal activity against Tetranychus urticae larvae at 200 mg/kg.

In the case of `N#C/C(=N/OCc1ccc(NC(=O)NC(=O)c2c(F)cccc2F)cc1)c1ccccc1`, the Activity was 0% in the experiment on Mythimna separata [1]; 0% in the experiment with Mythimna separata [2]; 0% with Mythimna separata [3]; 50% with Nephotettix cincticeps; 0% in the experiment with Mythimna separata [4]; 0% in the experiment on Mythimna separata [5]. The compound also displayed an Activity in the experiment with Mythimna separata [6] of 25%.

With `Cc1nn(-c2ccccc2)c(Cl)c1/C=N\OCc1ccc(NC(=O)NC(=O)c2c(F)cccc2F)cc1`, the Activity with Mythimna separata [1] amounted to 0%; in the experiment on Mythimna separata [2] it was 0%; in the experiment with Mythimna separata [3], 0%; in the experiment with Nephotettix cincticeps, 62.5%; in the experiment on Mythimna separata [4], 40%; in the experiment on Mythimna separata [5], 0%. Also, in the experiment with Mythimna separata [6], the Activity came out at 100%.

For the compound `Cc1cc(C)cc(Oc2c(/C=N\OCc3ccc(NC(=O)NC(=O)c4c(F)cccc4F)cc3)c(C)nn2C)c1`, the Activity in the experiment on Mythimna separata [1] is 0%; in the experiment on Mythimna separata [2] it was 0%; in the experiment with Mythimna separata [3], 0%; in the experiment with Nephotettix cincticeps, 69.7%; in the experiment with Mythimna separata [4] it was 100%; with Mythimna separata [5], 50%. Besides, the Activity with Mythimna separata [6] is 100%.

Regarding `CCCCS/C(=N/OCc1ccc(NC(=O)NC(=O)c2c(F)cccc2F)cc1)c1ccc(C(C)(C)C)cc1`, the Activity in the experiment on Mythimna separata [1] was found to be 0%; in the experiment with Mythimna separata [2], 25%; with Mythimna separata [3] it was 0%; with Nephotettix cincticeps, 56.3%; with Mythimna separata [4] it was 65%; with Mythimna separata [5] it was 40%. Moreover, the Activity in the experiment with Mythimna separata [6] is reported as 80%.

`CCCS/C(C)=N\OCc1ccc(NC(=O)NC(=O)c2c(F)cccc2F)cc1`: the Activity was 10% in the experiment on Mythimna separata [1]; 0% with Mythimna separata [3]; 15% with Mythimna separata [4]; 10% in the experiment with Mythimna separata [5]; 75% with Mythimna separata [6].

Take `CC(C)(C)c1ccc(/C=N\OCc2ccc(NC(=O)NC(=O)c3c(F)cccc3F)cc2)cc1`: the Activity stood at 18.2% with Nephotettix cincticeps, 0% with Mythimna separata [4] and 30% in the experiment on Mythimna separata [6].

Turning to `Cc1ccc(Oc2c(/C=N\OCc3ccc(NC(=O)NC(=O)c4c(F)cccc4F)cc3)c(C)nn2C)cc1`, the Activity with Mythimna separata [1] was 0%; with Mythimna separata [2], 0%; in the experiment on Mythimna separata [3] it was 0%; with Nephotettix cincticeps it was 50%; with Mythimna separata [4] it was 0%; in the experiment with Mythimna separata [5], 0%. The compound also registered an Activity with Mythimna separata [6] of 30%.

Turning to `O=C(NC(=O)c1c(F)cccc1F)Nc1ccc(CO/N=C\c2ccc3c(c2)OCO3)cc1`, the Activity stood at 11% in the experiment on Tetranychus urticae [7]; 100% in the experiment with Mythimna separata [1]; 100% in the experiment with Mythimna separata [2]; 50% with Mythimna separata [3]; 10% in the experiment on Tetranychus urticae [8]; 33.3% in the experiment on Nephotettix cincticeps. Moreover, the Activity in the experiment on Mythimna separata [4], in the experiment with Mythimna separata [5] and in the experiment with Mythimna separata [6] was 100% in each case.

`C/C(=N/OCc1ccc(NC(=O)NC(=O)c2c(F)cccc2F)cc1)c1ccc2c(c1)OCO2`: the Activity came to 10% in the experiment with Tetranychus urticae [7]; 70% in the experiment with Mythimna separata [1]; 90% in the experiment with Mythimna separata [2]; 15% in the experiment with Mythimna separata [3]; 7% in the experiment with Tetranychus urticae [8]; 100% in the experiment with Mythimna separata [4]. Besides, the Activity in the experiment with Mythimna separata [5] and in the experiment with Mythimna separata [6] was 100% throughout.

`CC(C)Oc1ccc(/C=N\OCc2ccc(NC(=O)NC(=O)c3c(F)cccc3F)cc2)cc1` had an Activity with Mythimna separata [6] of 0%.

For `Cc1ccc(Oc2c(/C=N\OCc3ccc(NC(=O)NC(=O)c4c(F)cccc4F)cc3)c(C)nn2C)cc1C`, the Activity is 0% in the experiment on Mythimna separata [1]; 0% with Mythimna separata [2]; 0% with Mythimna separata [3]; 24.3% in the experiment with Nephotettix cincticeps; 0% with Mythimna separata [4]; 0% in the experiment with Mythimna separata [5]. For the same compound, the Activity with Mythimna separata [6] amounted to 60%.

Regarding `CCS/C(=N/OCc1ccc(NC(=O)NC(=O)c2c(F)cccc2F)cc1)C(C)C`, the Activity with Tetranychus urticae [7] was 76%; in the experiment on Mythimna separata [1], 0%; in the experiment on Mythimna separata [3], 0%; with Tetranychus urticae [8], 43%; in the experiment with Nephotettix cincticeps it was 41%; in the experiment on Mythimna separata [4], 100%. For the same compound, the Activity in the experiment with Mythimna separata [5] stood at 50%; in the experiment on Mythimna separata [6], 100%.

Take `C/C(=N/OCc1ccc(NC(=O)NC(=O)c2c(F)cccc2F)cc1)n1cncn1`: the Activity in the experiment on Tetranychus urticae [7] amounted to 12%; with Mythimna separata [1], 0%; with Mythimna separata [2], 50%; in the experiment with Mythimna separata [3] it was 0%; in the experiment with Tetranychus urticae [8], 10%; in the experiment on Nephotettix cincticeps it was 19.2%. The Activity in the experiment on Mythimna separata [4], in the experiment with Mythimna separata [5] and with Mythimna separata [6] was 100% in each case.

In the case of `O=C(NC(=O)c1c(F)cccc1F)Nc1ccc(CO/N=C\OCc2ccccc2)cc1`, the results for the Activity in the experiment with Nephotettix cincticeps, with Mythimna separata [4] and in the experiment on Mythimna separata [6] were 45.7%, 0% and 30%, respectively.

As for `O=C(NC(=O)c1c(F)cccc1F)Nc1ccc(CO/N=C(/c2ccc(Cl)cc2)C2CC2)cc1` [FLUCYCLOXURON], the Activity with Tetranychus urticae [7] amounted to 100%; in the experiment with Mythimna separata [1] it was 100%; with Mythimna separata [3], 100%; in the experiment with Tetranychus urticae [8], 100%; in the experiment with Nephotettix cincticeps it was 42.8%.
